Key:
Test in all cases: relative viability (nuclei count vs DMSO), 5 days (fraction); higher = more cells survive
Linsitinib + Vorinostat = compound: C[C@]1(O)C[C@@H](c2nc(-c3ccc4ccc(-c5ccccc5)nc4c3)c3c(N)nccn32)C1 [Linsitinib] + O=C(CCCCCCC(=O)Nc1ccccc1)NO [Vorinostat] (partner 1 µM)
In short: (§1)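 After 5 days of treatment, lung cancer cells in 1536-well plates were fixed and stained in a single step (final 0.05% Triton X-100, 1% formaldehyde, 1 ug/ml Hoechst) and their nuclei counted on 4× images. Treatment had been applied by pin tool the day after seeding as one drug alone or as a fixed anchor-drug dose with five library-drug doses (not always all listed) in √10 steps. Relative viability is the nuclei count of treated wells divided by that of vehicle wells, and values are medians of duplicate plates.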

Linsitinib + Pemetrexed = compound: C[C@]1(O)C[C@@H](c2nc(-c3ccc4ccc(-c5ccccc5)nc4c3)c3c(N)nccn32)C1 [Linsitinib] + Nc1nc2[nH]cc(CCc3ccc(C(=O)N[C@@H](CCC(=O)O)C(=O)O)cc3)c2c(=O)[nH]1 [Pemetrexed] (partner 0.2 µM)
In short: as §1

Linsitinib + Lapatinib = compound: C[C@]1(O)C[C@@H](c2nc(-c3ccc4ccc(-c5ccccc5)nc4c3)c3c(N)nccn32)C1 [Linsitinib] + CS(=O)(=O)CCNCc1ccc(-c2ccc3ncnc(Nc4ccc(OCc5cccc(F)c5)c(Cl)c4)c3c2)o1 [Lapatinib] (partner 2 µM)
In short: as §1

Ispinesib + Luminespib = compound: Cc1ccc(C(=O)N(CCCN)[C@@H](c2nc3cc(Cl)ccc3c(=O)n2Cc2ccccc2)C(C)C)cc1 [Ispinesib] + CCNC(=O)c1noc(-c2cc(C(C)C)c(O)cc2O)c1-c1ccc(CN2CCOCC2)cc1 [Luminespib] (partner 0.01 µM)
In short: as §1

Row | Cell Line | relative viability (Linsitinib + Vorinostat; first compound 0.01 µM) | relative viability (Linsitinib + Vorinostat; first compound 0.03162 µM) | relative viability (Linsitinib + Vorinostat; first compound 0.1 µM) | relative viability (Linsitinib + Vorinostat; first compound 0.3162 µM) | relative viability (Linsitinib + Vorinostat; first compound 1 µM) | relative viability (Linsitinib + Pemetrexed; first compound 0.01 µM) | relative viability (Linsitinib + Pemetrexed; first compound 0.03162 µM) | relative viability (Linsitinib + Pemetrexed; first compound 0.1 µM) | relative viability (Linsitinib + Pemetrexed; first compound 0.3162 µM) | relative viability (Linsitinib + Pemetrexed; first compound 1 µM) | relative viability (Linsitinib + Lapatinib; first compound 0.01 µM) | relative viability (Linsitinib + Lapatinib; first compound 0.03162 µM) | relative viability (Linsitinib + Lapatinib; first compound 0.1 µM) | relative viability (Linsitinib + Lapatinib; first compound 0.3162 µM) | relative viability (Linsitinib + Lapatinib; first compound 1 µM) | relative viability (Ispinesib + Luminespib; first compound 0.001 µM) | relative viability (Ispinesib + Luminespib; first compound 0.003162 µM) | relative viability (Ispinesib + Luminespib; first compound 0.01 µM) | relative viability (Ispinesib + Luminespib; first compound 0.03162 µM) | relative viability (Ispinesib + Luminespib; first compound 0.1 µM)
1 | NCI-H1651 | 0.267 | 0.535 | 0.5 | 0.543 | 0.484 | 0.345 | 0.489 | 0.56 | 0.608 | 0.596 | 0.761 | 0.772 | 0.78 | 0.667 | 0.566 | 0.989 | 0.88 | 0.859 | 1.23 | 0.404
2 | NCI-H1975 | 0.752 | 0.614 | 0.748 | 0.575 | 0.632 | 0.287 | 0.239 | 0.293 | 0.287 | 0.289 | 0.825 | 0.82 | 0.866 | 1.04 | 0.684 | 0.231 | 0.217 | 0.21 | 0.351 | 0.198
3 | NCI-H2126 | 0.855 | 0.8 | 0.767 | 0.451 | 0.514 | 0.707 | 0.67 | 0.779 | 0.511 | 0.598 | 0.774 | 0.754 | 0.704 | 0.392 | 0.455 | 0.927 | 1.02 | 1.03 | 0.844 | 0.428
4 | 201T | 0.941 | 1.06 | 0.972 | 0.487 | 0.832 | 0.319 | 0.272 | 0.343 | 0.287 | 0.29 | 0.967 | 1.06 | 1.07 | 0.789 | 0.978 | 1.07 | 1.05 | 1.15 | 0.988 | 0.937

From the supplement of paper PMC10307832
